Data as given in patent US6426229B1, “Chelating agent and detergent comprising the same” (Mitsubishi Rayon Co., Ltd., priority 1995, dated 2002).

test: Compression strength (hardening property) of powder stored under load for 2 months; format: physicochemical; details: Load 100 (table head [Kg]; text 100 g/cm^2); 20-30° C., relative humidity 40-70%
Description: Method for the Measurement of Compression Strength
(1) A test sample (500 g) is put in a poly-ethylene bag of 20 cm×20 cm in a room at a temperature of 20-30° C. and a relative humidity of 40-70%. The powder is levelled to an area of 20 cm×20 cm and air is forced out of the bag, and, then, the bag is sealed. This bag is further put in a kraft bag and this kraft bag is sealed.
(2) The kraft bag of (1) is placed horizontally on a flat plate and a plate is put thereon. […]
(3) With keeping the temperature of 20-30° C. and the relative humidity of 40-70%, the test sample is taken out after lapse of 2 months from the starting of application of load. Several test pieces (4 cm long×4 cm broad×2 cm high) are cut out from the sample.

| Compound | Compression strength after stored for 2 months [Kg/cm^2] |
| --- | --- |
| O=C([O-])CN[C@@H](CC(=O)[O-])C(=O)[O-].[Na+].[Na+].[Na+] [compound 1, trisodium salt of (S)-aspartic acid-N-monoacetic acid, reference compound] | 2.6 |
| O=C([O-])CCN[C@@H](CC(=O)[O-])C(=O)[O-].[Na+].[Na+].[Na+] [compound 2, trisodium salt of (S)-aspartic acid-N-monopropionic acid, reference compound] | 3.0 |
| O=C([O-])C[C@@H](C(=O)[O-])N(CC(=O)[O-])CC(=O)[O-].[Na+].[Na+].[Na+].[Na+] [compound 3, tetrasodium salt of (S)-aspartic acid-N,N-diacetic acid, reference compound] | 3.2 |
| C[C@@H](C(=O)[O-])N(CC(=O)[O-])CC(=O)[O-].[Na+].[Na+].[Na+] [compound 4, trisodium salt of (S)-α-alanine-N,N-diacetic acid, reference compound] | 2.8 |
| O=C(O)CN[C@@H](CC(=O)O)C(=O)O [compound 5, (S)-aspartic acid-N-monoacetic acid, reference compound] | 2.8 |
| O=C(O)CCN[C@@H](CC(=O)O)C(=O)O [compound 6, (S)-aspartic acid-N-monopropionic acid, reference compound] | 2.5 |
| O=C(O)C[C@@H](C(=O)O)N(CC(=O)O)CC(=O)O [compound 7, (S)-aspartic acid-N,N-diacetic acid, reference compound] | 2.3 |
| C[C@@H](C(=O)O)N(CC(=O)O)CC(=O)O [compound 8, (S)-α-alanine-N,N-diacetic acid, reference compound] | 2.6 |
| O=C([O-])CN(CCS(=O)(=O)[O-])CC(=O)[O-].[Na+].[Na+].[Na+] [compound 9, trisodium salt of taurine-N,N-diacetic acid, reference compound] | 2.5 |
| CN(CC(=O)[O-])CC(=O)[O-].[Na+].[Na+] [compound 10, disodium N-methyliminodiacetate, reference compound] | 2.6 |
| O=C([O-])CN(CC(=O)[O-])c1ccccc1C(=O)[O-].[Na+].[Na+].[Na+] [compound 11, trisodium salt of anthranilic acid-N,N-diacetic acid, reference compound] | 2.5 |
| O=C(O)CN(CCS(=O)(=O)O)CC(=O)O [compound 12, taurine-N,N-diacetic acid, reference compound] | 3.3 |
| CN(CC(=O)O)CC(=O)O [compound 13, N-methyliminodiacetic acid, reference compound] | 2.7 |
| O=C(O)CN(CC(=O)O)c1ccccc1C(=O)O [compound 14, anthranilic acid-N,N-diacetic acid, reference compound] | 2.5 |
| O=C([O-])CC(NCCNC(CC(=O)[O-])C(=O)[O-])C(=O)[O-].[Na+].[Na+].[Na+].[Na+] (stereo not shown) [compound 16, tetrasodium ethylenediaminedisuccinate, reference compound] | 2.8 |
| O=C([O-])C[C@H](NCCN[C@@H](CC(=O)[O-])C(=O)[O-])C(=O)[O-].[Na+].[Na+].[Na+].[Na+] [compound 17, tetrasodium (S,S)-ethylenediaminedisuccinate, reference compound] | 2.9 |
| O=C([O-])CC(NCCCNC(CC(=O)[O-])C(=O)[O-])C(=O)[O-].[Na+].[Na+].[Na+].[Na+] (stereo not shown) [compound 18, tetrasodium 1,3-propanediaminedisuccinate, reference compound] | 3.0 |
| O=C([O-])C[C@H](NCCCN[C@@H](CC(=O)[O-])C(=O)[O-])C(=O)[O-].[Na+].[Na+].[Na+].[Na+] [compound 19, tetrasodium (S,S)-1,3-propanediaminedisuccinate, reference compound] | 2.9 |
| O=C([O-])C[C@H](NCC(O)CN[C@@H](CC(=O)[O-])C(=O)[O-])C(=O)[O-].[Na+].[Na+].[Na+].[Na+] [compound 20, tetrasodium (S,S)-2-hydroxy-1,3-propanediaminedisuccinate, reference compound] | 2.7 |
| O=C(O)C[C@H](NCCN[C@@H](CC(=O)O)C(=O)O)C(=O)O [compound 21, ethylenediaminedisuccinic acid, reference compound] | 2.8 |
| O=C(O)C[C@H](NCCN[C@@H](CC(=O)O)C(=O)O)C(=O)O [compound 22, (S,S)-ethylenediaminedisuccinic acid, reference compound] | 2.5 |
| O=C(O)CC(NCCCNC(CC(=O)O)C(=O)O)C(=O)O (stereo not shown) [compound 23, 1,3-propanediaminedisuccinic acid, reference compound] | 2.7 |
| O=C(O)C[C@H](NCCCN[C@@H](CC(=O)O)C(=O)O)C(=O)O [compound 24, (S,S)-1,3-propanediaminedisuccinic acid, reference compound] | 2.8 |
| O=C(O)C[C@H](NCC(O)CN[C@@H](CC(=O)O)C(=O)O)C(=O)O [compound 25, (S,S)-2-hydroxy-1,3-propanediaminedisuccinic acid, reference compound] | 2.5 |
| O=C([O-])C[C@H](NCCN[C@@H](CC(=O)[O-])C(=O)[O-])C(=O)[O-].[Fe+3].[NH4+] [compound 26, iron ammonium (S,S)-ethylenediaminedisuccinate, reference compound] | 2.7 |
| O=C([O-])C[C@H](NCCN[C@@H](CC(=O)[O-])C(=O)[O-])C(=O)[O-].[Cu+2].[Na+].[Na+] [compound 27, copper disodium (S,S)-ethylenediaminedisuccinate, reference compound] | 2.8 |
| O=C([O-])C[C@H](NCCN[C@@H](CC(=O)[O-])C(=O)[O-])C(=O)[O-].[Na+].[Na+].[Ni+2] [compound 28, nickel disodium (S,S)-ethylenediaminedisuccinate, reference compound] | 2.5 |
| iron salt of anthranilic acid-N,N-diacetic acid [compound 15, reference compound] | 2.5 |

same assay, conditions: Load 200 (table head [Kg]; text 200 g/cm^2); 20-30° C., relative humidity 40-70%

| Compound | Compression strength after stored for 2 months [Kg/cm^2] |
| --- | --- |
| O=C([O-])C[C@H](NCCN[C@@H](CC(=O)[O-])C(=O)[O-])C(=O)[O-].[Cu+2].[Na+].[Na+] [Example 80, copper disodium (S,S)-ethylenediaminedisuccinate] | 1.0 |
| O=C([O-])C[C@H](NCCN[C@@H](CC(=O)[O-])C(=O)[O-])C(=O)[O-].[Na+].[Na+].[Ni+2] [Example 81, nickel disodium (S,S)-ethylenediaminedisuccinate] | 1.2 |
| O=C([O-])C[C@H](NCCCN[C@@H](CC(=O)[O-])C(=O)[O-])C(=O)[O-].[Fe+3].[NH4+] [Example 82, iron ammonium (S,S)-1,3-propanediaminedisuccinate] | 1.1 |
| O=C([O-])C[C@H](NCCCN[C@@H](CC(=O)[O-])C(=O)[O-])C(=O)[O-].[Cu+2].[Na+].[Na+] [Example 83, copper disodium (S,S)-1,3-propanediaminedisuccinate] | 1.3 |
| O=C([O-])CC(NCCCNC(CC(=O)[O-])C(=O)[O-])C(=O)[O-].[Na+].[Na+].[Ni+2] [Example 84, nickel disodium (S,S)-1,3-propanediaminedisuccinate] | 1.0 |

same assay, conditions: Load 300 (table head [Kg]; text 300 g/cm^2); 20-30° C., relative humidity 40-70%

| Compound | Compression strength after stored for 2 months [Kg/cm^2] |
| --- | --- |
| iron salt of anthranilic acid-N,N-diacetic acid [Example 45] | 0.8 |

test: Storage of aqueous solution or slurry for 60 days: HPLC analysis of components and appearance; format: physicochemical; details: keeping temperature 75° C.

| Compound | Appearance after kept for 60 days | Content of the compound of the formula [I] in aqueous solution after kept for 60 days [wt. %] |
| --- | --- | --- |
| O=C([O-])CN[C@@H](CC(=O)[O-])C(=O)[O-].[Na+].[Na+].[Na+] [Example 89, trisodium salt of (S)-aspartic acid-N-monoacetic acid] | Colorless transparent aqueous solution | 49.4 |
| O=C([O-])C[C@@H](C(=O)[O-])N(CC(=O)[O-])CC(=O)[O-].[Na+].[Na+].[Na+].[Na+] [Example 90, tetrasodium salt of (S)-aspartic acid-N,N-diacetic acid] | Colorless transparent aqueous solution | 49.5 |
| O=C([O-])CCN[C@@H](CC(=O)[O-])C(=O)[O-].[Na+].[Na+].[Na+] [Example 91, trisodium salt of (S)-aspartic acid-N-monopropionic acid] | Colorless transparent aqueous solution | 49.8 |
